One series has as its system parasitized RBC. Kind of series: Calcium levels in parasitized RBC. The series is classed as cell-based. The conditions noted are these: 10 μM, within a few seconds, preliminary. How it is done: No difference in the activity of the Calcium T Channel was observed under control conditions and with increasing concentrations of the Calxinin molecule, there is no difference in the amplitude of the calcium channel currents, nor in the dependence with the membrane potential of calcium channel activation up to 1 microMolar, that is […] higher than the IC50 to kill the parasite. Human T-type calcium channel currents were measured with the Patch clamp on the “whole cell” configuration in HEK cells constitutively expressing human T type Calcium channel. […] As shown, in FIG. 9 no difference in the amplitude of the calcium channel currents, nor in the dependence with the membrane potential of calcium channel activation even at 11 times the IC50 concentration. Preliminary results of parasitized RBC treated with CQ (I0 μM)+DMSO (negative control) and treated Compound I (10 μM, data not shown) were generated.

The subject of series [1] is L. donavani infected THP1 cells. Kind of series: Calcium levels in L. donavani infected THP1 cells (Fluo4-AM). The format is cell-based, Leishmania donovani. The note with it: 10 μM, within few seconds, preliminary. How it is done: A macrophage differentiated cell culture of THP1 cell lines by phorbol 12-myristate 13-acetate (PMA) concentration of 15 ng/ml was established on 15 mm glass bottom petri dishes. The confluent cells were infected with leishmania promastigotes in 1:5 ratio. The infected macrophages were washed after 24 hr.
Incubation was conducted to remove uninfecting promastigotes with same RPMI medium with 6% FCS. The culture was then washed twice in HEPES-buffered saline solution (HBSS) (in mM: 25 HEPES, 121 NaCl, 5 NaHCO3, 4.7 KCl, 1.2 KH2PO4, 1.2 MgSO4, 2.0 CaCl2), 10 glucose, 0.04 probenecid, and 0.25% (w/v) fatty acid-free BSA, pH 7.4). The culture was switched to the same buffer with Fluo4-AM (1×), Hoechst 33258 (1×) and charged for 40 minutes. The cells were then washed in same buffer without dye and mounted on the stage of inverted LSM 510 Zeiss, […], 1.4 NA, oil-immersion objective, zoom 4-6, z-stacks of […] thin optical sections, 4-8× average, 2,000×2,000 pixel window, range indicator used for optimized illumination, and 488, 543, 633 laser lines used for excitation. Compounds Miltefosine, Amphotericin B, calxinin and DMSO were added during time-course experiments. Preliminary results of Amastigotes treated with DMSO (negative control) and treated Compound 1 (10 μM) were generated.

Series [2] in a line: In vitro cytotoxicity, HepG2. The format is cell-based. The conditions noted are these: human, HepG2 cells; read-out: CC50 (50% cell toxicity).
The subject of series [3] is P. falciparum CQ-resistant (PfDd2). Kind of series: SYBR Green I assay, asynchronous cultures, CQ-resistant clone. The series is classed as cell-based. The note with it: Plasmodium falciparum.
The nature of series [4]: In vitro cytotoxicity, Huh 7.1 (Alamar Blue). The series is classed as cell-based. The note with it: human, Huh 7.1 cells; read-out: CC50 (50% cell toxicity). As for the experimental part:
In addition, the cell viability of Huh 7 and HEK293 cells was evaluated post drug exposure using the Alamar Blue assay [Riss, Terry L., et al. “Cell viability assays.” Assay Guidance Manual [Intenet]. Eli Lilly & Company and the National Centre for Advancing Translational Sciences, 2016]. Cells ([…]) were exposed to varying concentrations of test compounds, for 24 hours in 96-well plate format along with 10/100 μL Alamar Blue solution (10×=4.8 mM in phosphate buffer) per well. […] Results from the cytotoxicity assays were expressed as CC50 at which 50% of the cells died/metabolically slowed down due to drug exposure compared to the non-treated and vehicular control.
The cytotoxicity of Compound I was tested by exposing peripheral blood mononuclear cells (PBMCs) to drug concentrations corresponding to averages of both Pf3D7 and PfDd2 IC50 values. This was intended to establish whether the observed antiparasitic effects of the compounds were due to non-specific inhibitory activity. […] The IC50 required for killing the parasite is <90 nM. Therefore, in order to be toxic for human cells we have to use over 650 fold concentration.

In series [5] the test system is Plasmodium berghei NK-65 (chloroquine-resistant). Kind of series: In vivo blood stage mouse model, modified Peters four-day suppressive test. How it is done: Specifically, a murine model of malaria was developed wherein thirty healthy Swiss albino mice were inoculated intraperitoneally with 1×10^7 Plasmodium berghei NK-65 (chloroquine-resistant) infected red blood cells (RBCs) suspended in RPMI 1640 medium (commercially available from Thermo Fisher Scientific Inc.; 200 μL). A first set of the infected mice was treated each day with a single dose of 50 mg/kg of Compound I, and a second set was not treated. The survival of the mice was monitored to day 30 post-infection using a Kaplan-Meier survival analysis, and the statistical difference in animal survival was analyzed by a log rank test. Representative data for the percent parasitemia for untreated mice (control) and mice treated with Compound I are shown in Table 4 and FIG. 2A and FIG. 2B.
Activity of Compound I (Calxinin) was tested using a slightly modified version of Peter's 4-day suppressive test: initial infection of mice with P. berghei parasites, followed one dose 50 mg/kg of drug treatment, followed by monitoring of parasitemia as well as external signs of disease progression for up to 10 days.
10^7 Plasmodium berghei NK-65 (CQ-resistant) were administered by i.p into Swiss albino mice (6 mice/group). Infected mice were either treated with Compound I (Calxinin) or injected with DMSO alone (untreated vehicle control). […] The survival of the mice was followed up to day 30 post-infection using Kaplan-Meier survival analysis (FIG. 6B). Animal survival was analyzed by a log rank test.

Series [6] has as its system Field isolates from Kenya (P. falciparum infected blood). Kind of series: Screening against freshly collected field isolates. The series is classed as cell-based. The conditions noted are these: Plasmodium falciparum.

Each structure is given as a SMILES string. Where two headings read alike, the source gives them in different places. Marks after values point to notes of the source that are not given here.

Take `NC(Cc1ccccc1)C(O)CN1CCN(Cc2ccc(C(F)(F)F)cc2)CC1` (centres unmarked) [Compound I]: the “calcium levels of packed red blood cells (pRBCs)” value in the series on parasitized RBC is listed as “changes in the calcium levels”. Further, the “calcium levels of Macrophage+L. donavani” value in series [1] is on record as “changes in the calcium levels”. For the same molecule, in series [2], the CC50 turned out to be 1350 µM. Also, the IC50 was found to be 88 nM in series [3] (72 h, read-out: PfDd2 IC50, nM (±SD)); 88 nM in series [3] (DD2, read-out: IC50 against asexual stages, drug resistant (CQ-resistant) DD2); 88 nM in series [3] (read-out: mean half maximal inhibitory concentration (IC50) for PfDd2); 50 nM in series [6] (read-out: Field isolates from Kenya IC50, nM (±SD)); 643 nM in series [6] (read-out: IC50 against freshly collected field isolates of P. falciparum infected blood). In addition, the CC50 at 24 h in series [4] came out at 100 µM. The “activity against mixed blood stages” value in series [5] (50 mg/kg/day (single dose), NK64 strain) is “significant activity”. For the same molecule, in series [5] (Table 4, 50 mg/kg each day), the “Percent Parasitemia Day 3” value was 0.21 ** (P < 0.001). Besides, the “Percent Parasitemia Day 7” value in series [5] (Table 4, 50 mg/kg each day) is 2.45 * (P < 0.03). Besides, the “Percent Parasitemia Day 10” value in series [5] (Table 4, 50 mg/kg each day) was 12.3 * (P < 0.01). Besides, the “% Parasitemia Day 3” value in series [5] (Table 5, one dose 50 mg/kg) is listed as 0.21 ** (P < 0.001) %. The “% Parasitemia Day 7” value in series [5] (Table 5, one dose 50 mg/kg) is reported as 2.45 * (P < 0.03) %. The “% Parasitemia Day 10” value in series [5] (Table 5, one dose 50 mg/kg) is recorded as 12.3 * (P < 0.01) %. For the same molecule, in series [5] (single dose 10 mg/kg, P. berghei NK64, mixed blood stage parasites), the “reduction in parasite load” value is 30%.

The values are drawn from US11485714B2, “Hydroxyethylamine-based piperazine compounds, and methods of producing and using the same for treating disease” (National Institute of Immunology, priority 2020, dated 2022).
